Data as given in patent publication US12344599B2, “Prodigiosin analogs and methods of use” (Institute For Cancer Research, priority 2016, dated 2025).
Like-named read-outs stand apart in the source and are kept apart here. * marks the point of attachment. Cbz = O=C(OCc1ccccc1)*; CH2F = FC*

Columns and labels:
Type in all cases: cell-based, human
[1] = test system: γ-H2AX in HT29 and SW480 cells; assay: γ-H2AX DNA damage marker, western blot and immunofluorescence staining
Method: (§1) After treatment, protein lysates were collected for Western blot analysis. A total of […] of protein was used for SDS-PAGE. After primary and secondary antibody incubations, the signal was detected by a chemiluminescence detection kit, imaged by Syngene (Imgen Technologies). Antibodies for PUMA (for IHC), p53 (Santa Cruz Biotechnology), caspase 8, cleaved caspase 8, caspase 9, caspase 3, cleavage PARP, eIF2α, p-eIF2α (Ser51), CHOP, ATF4, DR5, FOXO3a, p-FOXO3a (Ser253), NF-κB p65, p-NF-κB p65 (Ser536), c-Jun, p-c-Jun (Ser63), JNK, p-JNK (Thr183/Tyr185), PUMA (for WB), c-Myc, phosphor-S62-cMyc (Cell Signaling Technology), Noxa, p21 (Calbiochem), p73 (Bethyl laboratories Inc), Ran (BD Biosciences), […] (Sigma).
A total of 5×10^4 cells were seeded in each well of 8-well chamber slides. After treatment, cells were fixed and permeabilized by methanol:acetone (1:1) for 20 minutes at −20° C. Fixed cells were blocked by 2% BSA for 1 hour, followed by primary antibody incubation for 1 hours and Cy3-conjuated secondary antibody incubation for 1 hour at room temperature. After washing, cells were stained with DAPI for 10 minutes at room temperature. Cells were mounted, and examined by fluorescence microscopy.
DNA damage induces the p53 pathway and leads to cell apoptosis. To study whether the p53 pathway restoration by compound PG3-Oc is due to DNA damage, the uptake and localization of PG3-Oc was investigated in cells. PG3-Oc and prodigiosin are red fluorescent compounds, and their localization in live cells can be monitored by fluorescence microscopy. PG3-Oc and prodigiosin rapidly entered cells within 2 hours of incubation and remained in the cytosol at the 8-hour time point in HT29 and SW480 cells (FIG. 46). […] Baldino, et al. reported that prodigiosin localized to the cytoplasm, but not within the nucleus, and no γ-H2AX signal was detected in A549 cancer cells (Baldino et al., Bioorg Med Chem Lett, 2006, 16, 701-704). […]

p53-target genes = assay: Western blotting of p53-target genes (Example 1)
Method: After treatment, protein lysates were collected for Western blot analysis. Twenty-five micrograms of protein were used for SDS-PAGE. After primary and secondary antibody incubations, the signal was detected with a chemiluminescent detection kit, followed by autoradiography or Syngen. […] In FIG. 10, p53-null HCT116 cells were treated with P01 and P306, alone or in combination with SiCon or SiTAp73, in various concentrations for 6 hours, and tested for p73 (C.S.), p73 (Bethyl), P63-α, p53, DR5, Puma, P21, and Ran proteins.

[2] = test system: SW480, DLD1 and p53-null cell line HCT116; assay: CellTiter-Glo luminescent cell viability assay (Example 1)
Method: SW480, DLD-1, DLD1-p73KD, HCT116, and p53-null HCT116, MRC5 and Wi38 cells were seeded at 5,000 cells per well on 96-well plates. […] Then, cells were mixed with an equal volume of CellTiter-Glo® reagents (Promega), following the manufacturer's protocol, and bioluminescence imaging was measured using the IVIS imager.

c-Myc and PUMA = assay: Western blot of c-Myc, PUMA and p53 target genes; settings: HT29 cells
Method: as §1
To test this hypothesis, two ERK1/2 inhibitors that act by different mechanisms were used. U0126 is an indirect ERK1/2 inhibitor. It inhibits MEK1 kinase and blocks the phosphorylation of ERK1/2. […] Consistent with a previous publication (Choi et al., Genes Dev, 2010, 24, 1236-1241), SCH772984 can inhibit ERK1/2 function after ERK1/2 is phosphorylated (FIG. 73), and the same is observed for PG3-Oc (FIG. 73).

HT29 cells = assay: Flow cytometry sub-G1 (PI staining) analysis; settings: HT29, 20 μM Z-VAD-FMK co-treated with 1 μM PG3-Oc, 48 hours
Method: • 1) Cell lines: HT29, SW480, DLD-1, HCT116, and p53-null HCT116 cells, H1975, MDA-MD-231, U251, FaDu, CAL-27, PANC-1, Aspc-1, and MRC5 were obtained from the ATCC and cultured as recommended. Cells were regularly authenticated by bioluminescence, growth, and morphologic observation. The cells were routinely examined for Mycoplasma and all cell lines underwent STR authentication. • 2) Western blotting: After treatment, protein lysates were collected for Western blot analysis. 15 μg of protein was used for SDS-PAGE. After primary and secondary antibody incubations, the signal was detected by chemiluminescent detection kit, imaged by Syngene (Imgen Technologies). Antibodies for Puma, FLIPL/S and p53 (Santa Cruz Biotechnology), cleaved caspase 8, caspase 9, caspase 3, cleavage PARP, eIF2α, p-eIF2α(Ser51), CHOP, ATF4, DR5, FOXO3a, p-FOXO3a(Ser253), NF-κB p65, p-NF-κB p65(Ser536), c-Jun, p-c-Jun(Ser63), JNK, p-JNK(Thr183/Tyr185) (Cell Signaling Technology), Noxa, p21 (Calbiochem), p73 (Bethyl laboratories Inc), Ran (BD Biosciences), […] (Sigma). • 3) Cell viability assay: Cells were seeded in 96-well plate (6×10^3 cells/well). Cells were treated with different concentrations of compounds or dimethyl sulfoxide (DMSO) control for 72 hours. The cell viability was assessed by CellTiterGlo bioluminescent cell proliferation assay (Promega), following the manufacturer's protocol. Bioluminescence imaging was measured using the IVIS imager. Percentage of cell viability (mean±SEM) at each dose was calculated against the respective DMSO control. The IC50 values were determined from the sigmoidal dose-response curves using GraphPad Prims4. • 4) Caspase activity assay: Cells were seeded in 96-well plate (1×10^4 cells/well). Cells were treated with different concentrations of compounds or DMSO control for 24 hours. The caspase 3/7 activity was assessed by Caspase-Glo® 3/7 Assay kit (Promega), following the manufacturer's protocol. Bioluminescence imaging was measured using the IVIS imager. Caspase activity was normalized to cell numbers and compared to those of DMSO treatment as control in each cell line. Data is reported as mean RLU+SEM (n=3). • 5) Colony formation assays: Five hundred cells were seeded per well on 6-well plates and treated with different concentrations of compounds for 24 hours, then, cells were cultured with drug-free complete medium for 2 weeks with fresh medium changed every 7 days. Cells were fixed with 10% formalin and stained with 0.05% crystal violet at the end of 2 weeks period of cell culture. • 6) Flow cytometry assay: • a) Cell Cycle Analysis: Propidium iodide (PI) staining and flow cytometry were used to determine the degree of cellular apoptosis. Cells were seeded at 3×10^5 cells/well in six-well plates. Cells were treated with PG3-Oc for 48 hours. Cells were harvested, fixed by 70% ethanol, and stained by propidium iodide, then flow cytometry was performed as previously described (Smithen et al., Org. Biomol. Chem., 2013, 11, 62-68). The percentage of hypodiploid cells (sub-G1) was used to quantify dead cells in apoptosis assays. • b) Early apoptosis detection: Cells were seeded at 3×10^5 cells/well in six-well plates. Cells were treated with PG3-Oc for 48 hours. […]

CCc1c2c(nc3ccc(OC(=O)N4CCC(N5CCCCC5)CC4)cc13)-c1cc3c(c(=O)n1C2)COC(=O)[C@]3(O)CC [CPT-11, Irinotecan]
induction of 65-H2AX (DNA damage marker) / foci formation [1]: significantly induced

CCc1c(C)[nH]c(/C=C2\N=C(c3ccc[nH]3)C=C2OC)c1C [P301]
expression of p53-target genes (p53-target genes): induced the expression of p53-target genes via p73
induction of cell death ([2]; SW480, DLD1, p53-null HCT116): potently induced cell death
IC50 values ([2]; SW480, DLD1, p53-null HCT116, 72 hours): within nanomolar range

O=C(Nc1ccc2[nH]nc(-c3ccncc3)c2c1)[C@@H]1CCN(CC(=O)N2CCN(c3ccc(-c4ncccn4)cc3)CC2)C1 [SCH772984]
effect on c-Myc and PUMA (c-Myc and PUMA): potently induced the downregulation of c-Myc and the upregulation of PUMA
effect on p53 target genes DR5, p21 and Noxa (c-Myc and PUMA): did not induce DR5, shown mild upregulation of p21 and suppressed Noxa expression

N#CC(=C(/N)Sc1ccccc1N)/C(C#N)=C(\N)Sc1ccccc1N [U0126]
effect on c-Myc and PUMA (c-Myc and PUMA): potently induced the downregulation of c-Myc and the upregulation of PUMA

CCCCCc1cc(/C=C2\N=C(c3ccc[nH]3)C=C2OC)[nH]c1C [prodigiosin, Prodigiosin]
induction of 65-H2AX (DNA damage marker) / foci formation ([1]; HT29 and SW480, 8-hour treatment): did not induce

Cbz-Val-Ala-Asp-CH2F [reference compound]
formation of a sub-G1 population induced by PG3-Oc (HT29 cells): completely blocked
